The values that follow come from patent publication US20060035983A1, “Methods for treating fungal infections” (priority 2002, published 2006).

Values after ≈ are worked out from the molar mass of the structure shown.

The subject of one data set is Trichophyton rubrum. The data set is described as follows: Antifungal susceptibility testing (NCCLS M27-A), Trichophyton rubrum cultures in vitro. The format is cell-based. The following applies: for MIC80 / MIC100: 7 days at 30° C.; for MIC100: lowest concentration that inhibited 100% of fungal growth; for MFC: lowest concentration that killed at least 97% of the original inoculum; for fungicidal effect: result in words. The method, then:
Suspensions were then treated with various polyoxyethylene alkyl ethers at a range of concentrations, and incubated for 7 days at 30° C. […] Minimum fungicidal concentrations (MFCs) were determined as the lowest concentration of compound that killed at least 97% of the original inoculum, as compared with the verified inoculum count.

The conditions of data set [1]: critical micelle content; no method given; cited from earlier work.
Data set [2] relates to Scopulariopsis brevicaulis. Briefly: Additional fungal species susceptibility testing, Scopulariopsis brevicaulis. Type of data set: cell-based. The protocol:
(§1) A number of polyoxyethylene alkyl ethers were tested for fungicidal activity against Trichophyton rubrum cultures in vitro according to standard methods (see, Approved Standard M27-A, National Commitee for […] Laboratory Standards, 1997). Briefly, inocula from Trichophyton rubrum were harvested from agar cultures, suspended in 0.85% saline, and diluted to a verified final concentration of […] colony-forming units (CFU) per ml. Suspensions were then treated with various polyoxyethylene alkyl ethers at a range of concentrations, and incubated for 7 days at 30° C. Minimum inhibitory concentrations (MICs) were determined as the lowest concentration of compound that inhibited 100% of fungal growth, as compared with a polyoxyethylene alkyl ether-free control suspension. Minimum fungicidal concentrations (MFCs) were determined as the lowest concentration of compound that killed at least 97% of the original inoculum, as compared with the verified inoculum count. Trichophyton rubrum is the causative organism in 68-100% of patients in onychomycosis trials (Crawford et al. (2002) Archives Dermatol. 138:811-816). Trichophyton Mentagrophytes is the causative organism in most of the rest. Although yeast and other nondermatophytes can cause onychomycosis, the incidence is small. Additional fungal species were tested for susceptibility to treatment with Laureth-4 as described in Example 1.

In another data set the test system is Fusarium solani. The data set is described as follows: Additional fungal species susceptibility testing, Fusarium solani. The format is cell-based. The protocol: as §1
The subject of the next data set is Aspergillus flavus. The data set is described as follows: Additional fungal species susceptibility testing, Aspergillus flavus. Type of data set: cell-based. The method, then:
as §1

The test system of another data set is Candida Albicans. The data set is described as follows: Additional fungal species susceptibility testing, Candida albicans. The format is cell-based. The method, then: as §1
A further data set deals with Candida Parapsilosis. The data set is described as follows: Additional fungal species susceptibility testing, Candida parapsilosis. Type of data set: cell-based. The method, then:
as §1

In data set [3] the test system is Trichophyton mentagrophytes. The data set is described as follows: Additional fungal species susceptibility testing, Trichophyton mentagrophytes. Type of data set: cell-based. The method, then: as §1

For `CCCCCCCCS[C@@H]1O[C@H](CO)[C@@H](O)[C@H](O)[C@H]1O` [n-octyl-β-D-thioglucopyranoside], in the data set on Trichophyton rubrum, the MIC80 – broadly, the lowest concentration that inhibits either 80% of growth or 80% of the strains tested, depending on the study – stood at 500 µg/mL (≈ 1620 µM) and the MIC100 came to 1000 µg/mL (≈ 3240 µM). The CMC in data set [1] is reported as 9 mM.
In the data set with Trichophyton rubrum, `CCCCCCCCO[C@@H]1O[C@H](CO)[C@@H](O)[C@H](O)[C@H]1O` [n-octyl-β-D-glucopyranoside] had an MIC80 of 31.25 µg/mL (≈ 107 µM) and an MIC100 of 1000 µg/mL (≈ 3420 µM). Further, the CMC in data set [1] is 20 to 25 mM.
In the data set with Trichophyton rubrum, “Polyethylene glycol tert-octylphenyl ether [Triton X-100]” had an MIC80 of 31.25 µg/mL and an MIC100 of 1000 µg/mL. In addition, the CMC in data set [1] was 0.2 to 0.9 mM.
Regarding “Polyoxyethylene 2 stearyl ether [BRIJ 72]”, in the data set with Trichophyton rubrum, the MIC80 turned out to be 0.98 µg/mL; the MIC100 was found to be 0.98 µg/mL; the MFC – broadly, the lowest tested concentration that kills the fungus rather than only halting it – worked out at 3.9 µg/mL.
In the data set on Trichophyton rubrum, “Polyoxyethylenesorbitan monolaurate [Tween 20]” yielded an MIC80 of 125 µg/mL, an MIC100 of 500 µg/mL and an MFC of 1000 µg/mL. Besides, the CMC in data set [1] was 0.059 mM.
Regarding “Polyoxyethylene 20 oleyl ether [BRIJ 98]”, in the data set on Trichophyton rubrum, the MIC80 was 250 µg/mL, the MIC100 amounted to 500 µg/mL, the minimum fungicidal concentration (MFC) was 1000 µg/mL and the fungicidal effect result is “loss of the effect”.
As for `C[C@H](CCC(=O)NCCC[N+](C)(C)CCCS(=O)(=O)[O-])[C@H]1CC[C@H]2[C@@H]3[C@H](O)C[C@@H]4C[C@H](O)CC[C@]4(C)[C@H]3C[C@H](O)[C@]12C` [CHAPS], in the data set on Trichophyton rubrum, the MIC80 stood at 500 µg/mL (≈ 813 µM) and the MIC100 was 1000 µg/mL (≈ 1630 µM). Besides, in data set [1], the CMC is on record as 6 to 10 mM.
On to “Polyoxyethylenesorbitan monopalmitate [Tween 60]”, for which, in the data set with Trichophyton rubrum, the MIC80 was determined as 250 µg/mL, the MIC100 is 500 µg/mL and the MFC was found to be 1000 µg/mL. Also, the CMC in data set [1] was 0.059 mM.
On to “Polyoxyethylene 20 stearyl ether [BRIJ 78]”, for which, in the data set with Trichophyton rubrum, the MIC80 is 0.98 µg/mL, the MIC100 came to 1.95 µg/mL and the MFC came to 3.9 µg/mL.
The corresponding values for “Polyoxyethylene 20 cetyl ether [BRIJ 58]” are 0.49 µg/mL, 0.98 µg/mL and 1.95 µg/mL.
In the data set on Trichophyton rubrum, “Polyoxyethylene 23 lauryl ether [BRIJ 35]” yielded an MIC80 of 0.49 µg/mL, an MIC100 of 0.98 µg/mL and an MFC of 1.95 µg/mL. Moreover, in data set [1], the CMC is 0.09 mM.
In the data set with Trichophyton rubrum, Polyoxyethylene 2 cetyl ether [BRIJ 52] registered an MIC80 of 0.98 µg/mL, an MIC100 of 3.9 µg/mL and an MFC of 7.8 µg/mL.
For “Polyoxyethylenesorbitan monooleate [Tween 80]”, in the data set on Trichophyton rubrum, the MIC80 was determined as 250 µg/mL, the MIC100 came out at 1000 µg/mL and the MFC came out at 1000 µg/mL. Moreover, the CMC in data set [1] is given as 0.059 mM.
“Polyoxyethylene 4 lauryl ether [BRIJ 30]”: the MFC is more than 5000 µg/mL in data set [2]; more than 5000 µg/mL in the data set on Fusarium solani; more than 5000 µg/mL with Aspergillus flavus; 1.95 µg/mL against Trichophyton rubrum; more than 5000 µg/mL against Candida Albicans; more than 5000 µg/mL in the data set with Candida Parapsilosis. The MFC in data set [3] turned out to be 625 µg/mL. For the same compound, the MIC80 in data set [2] was 78 µg/mL; in the data set with Fusarium solani, 78 µg/mL; against Aspergillus flavus it was 39 µg/mL; with Trichophyton rubrum it was 0.98 µg/mL; in the data set with Candida Albicans, more than 5000 µg/mL; against Candida Parapsilosis it was 15.5 µg/mL. The compound also registered an MIC80 in data set [3] of 5 µg/mL. For the same compound, the MIC100 in data set [2] was more than 5000 µg/mL; with Fusarium solani it was more than 5000 µg/mL; against Aspergillus flavus, more than 5000 µg/mL; against Trichophyton rubrum, 1.95 µg/mL; in the data set on Candida Albicans, more than 5000 µg/mL; against Candida Parapsilosis it was more than 5000 µg/mL. Besides, in data set [3], the MIC100 amounted to 625 µg/mL.
In the data set with Trichophyton rubrum, “Polyoxyethylene 20 cetyl/stearyl ether [BRIJ 68]” gave an MIC80 of 1.95 µg/mL, an MIC100 of 3.9 µg/mL and an MFC of 15.6 µg/mL.
For the compound Polyoxyethylene 2 oleyl ether [BRIJ 93], in the data set with Trichophyton rubrum, the MIC80 worked out at 250 µg/mL, the MIC100 stood at 250 µg/mL, the MFC was 1000 µg/mL and the fungicidal effect entry is “loss of the effect”.
